Values joined by “and” are separate entries in the source; they are usually repeats but may differ in a detail not shown here. Identical values can stand only once. Counter-ions that a name gives are not always drawn. Square brackets hold non-standard residues; d marks the D form. Peptide text beside a SMILES is read from it. * marks the point of attachment. X2 = CC(C)[C@@H](C(=O)*)N(C)CCCCCCN1C(=O)CC(SC[C@H](N)C(=O)O)C1=O; X3 = CC(C)[C@@H](C(=O)*)N(C)CCOCCOCCOCCC(=O)NCCCC[C@H](N)C(=O)O; X4 = C[C@@H](O)[C@@H](C(=O)*)N(C)CCCCCC(=O)NCCCC[C@H](N)C(=O)O; X1 = CC(C)[C@@H](C(=O)*)N(C)CCCCCC(=O)NCCCC[C@H](N)C(=O)O; Dolaproine = CO[C@@H]([C@@H]1CCCN1)[C@@H](C)C(=O)O; Dil = CC[C@H](C)[C@H](NC)[C@@H](CC(=O)O)OC; Oxazinan2yl(1,2) = C1CCN(*)OC1
Columns and labels:
Caco-2 cells = test: Caco-2 flux assay for cell permeability; format: in vitro ADME; details: 2 hours, B to A
Protocol: The cell permeability of a substance can be investigated by means of in vitro testing in a flux assay using Caco-2 cells [M. D. Troutman and D. R. Thakker, Pharm. Res. 20 (8), 1210-1224 (2003)]. For this purpose, the cells were cultured for 15-16 days on 24-well filter plates. For the determination of permeation, the respective working example was applied in a HEPES buffer to the cells either apically (A) or basally (B) and incubated for 2 hours. After 0 hours and after 2 hours, samples were taken from the cis and trans compartments. The samples were separated by HPLC (Agilent 1200, Böblingen, Germany) using reverse phase columns. The HPLC system was coupled via a Turbo Ion Spray Interface to a Triple Quadropol mass spectrometer API 4000 (Applied Biosystems Applera, Darmstadt, Germany). The permeability was evaluated on the basis of a Papp value, which was calculated using the formula published by Schwab et al. [D. Schwab et al., J. Med. Chem. 46, 1716-1725 (2003)].

tubulin = test: Fluorescence-based microtubule (tubulin) polymerization assay; format: biochemical
Protocol: Tubulin polymerization was investigated using the “Fluorescence-based Microtubule Polymerisation Assay Kit” from Cytoskeleton (Denver, Colo., USA; order number: BK011). With this assay, GTP is added to unpolymerized tubulin, allowing polymerization to take place spontaneously. The assay is based on the binding of the fluorophore 4′,6-di-amidino-2-phenylindole (DAPI) to tubulin. Free and bound DAPI can be differentiated on the basis of different emission spectra.
[…] In addition to the buffer control, paclitaxel, with a polymerization-increasing effect, and vinblastin, with a polymerization inhibiting effect, were run additionally as assay controls. Measurement was carried out using 96-well plates with a half base area. The kinetics of the tubulin polymerization were monitored in a Fluorimeter at 37° C. for 1 hour. The excitation wavelength was 355 nm, and emission was monitored at 460 nm. For the region of linear increase within the first 10 minutes, a calculation was made of the change in fluorescence per minute (ΔF/min), which represents the polymerization rate of the microtubuli. The potency of the test substances was quantified on the basis of their respective reduction of the polymerization rate.
The reduction in the tubulin polymerization rate occurs in dependence on the concentration of the test substance added.

[1] = concentration of toxophore 1 μM
[2] = concentration of toxophore 10 μM

CC[C@H](C)[C@@H]([C@@H](CC(=O)N1CCC[C@H]1[C@H](OC)[C@@H](C)C(=O)N[C@@H](Cc1c[nH]c2ccccc12)C(N)=O)OC)N(C)C(=O)[C@@H](NC(=O)[C@H](C(C)C)N(C)CCCC(=O)NNC(=O)CCCCCN1C(=O)CC(SC[C@H](N)C(=O)O)C1=O)C(C)C (stereo partly drawn) [Example 62, N-(4-{2-[6-(3-{[(2R)-2-Amino-2-carboxyethyl]sulphanyl}-2,5-dioxopyrrolidin-1-yl)hexanoyl]hydrazino}-4-oxobutyl)-N-methyl-L-valyl-N-[(3R,4S,5S)-1-{(2S)-2-[(1R,2R)-3-{[(2S)-1-amino-3-(1H-indol-3-yl)-1-oxopropan-2-yl]amino}-1-methoxy-2-methyl-3-oxopropyl]pyrrolidin-1-yl}-3-methoxy-5-methyl-1-oxoheptan-4-yl]-N-methyl-L-valinamide]
Papp (B-A) (Caco-2 cells): 2 nm/s | Tubulin polymerization in the presence of toxophore in [%]. Tubulin polymerization rate at 1 μM MMAF set at 100% (tubulin; [1]): 88% | Tubulin polymerization in the presence of toxophore in [%]. Tubulin polymerization rate at 1 μM MMAF set at 100% (tubulin; [2]): 25%

CC[C@H](C)[C@@H]([C@@H](CC(=O)N1CCC[C@H]1[C@H](OC)[C@@H](C)C(=O)N[C@@H](Cc1c[nH]c2ccccc12)C(=O)O)OC)N(C)C(=O)[C@@H](NC(=O)[C@H](C(C)C)N(C)CCCC(=O)NNC(=O)CCCCCN1C(=O)CC(SC[C@H](N)C(=O)O)C1=O)C(C)C (stereo partly drawn) [Example 63, N-(4-{2-[6-(3-{[(2R)-2-Amino-2-carboxyethyl]sulphanyl}-2,5-dioxopyrrolidin-1-yl)hexanoyl]hydrazino}-4-oxobutyl)-N-methyl-L-valyl-N-[(3R,4S,5S)-1-{(2S)-2-[(1R,2R)-3-{[(1S)-1-carboxy-2-(1H-indol-3-yl)ethyl]amino}-1-methoxy-2-methyl-3-oxopropyl]pyrrolidin-1-yl}-3-methoxy-5-methyl-1-oxoheptan-4-yl]-N-methyl-L-valinamide]
Papp (B-A) (Caco-2 cells): 1.6 nm/s | Tubulin polymerization in the presence of toxophore in [%]. Tubulin polymerization rate at 1 μM MMAF set at 100% (tubulin; [2]): 27%

CC[C@H](C)[C@@H]([C@@H](CC(=O)N1CCC[C@H]1[C@H](OC)[C@@H](C)C(=O)N[C@@H](Cc1c[nH]c2ccccc12)C(N)=O)OC)N(C)C(=O)[C@@H](NC(=O)[C@H](C(C)C)N(C)CCCCCCN1C(=O)CC(SC[C@H](N)C(=O)O)C1=O)C(C)C (stereo partly drawn) [Example 65, N-[6-(3-{[(2R)-2-Amino-2-carboxyethyl]sulphanyl}-2,5-dioxopyrrolidin-1-yl)hexyl]-N-methyl-L-valyl-N-[(3R,4S,5S)-1-{(2S)-2-[(1R,2R)-3-{[(2S)-1-amino-3-(1H-indol-3-yl)-1-oxopropan-2-yl]amino}-1-methoxy-2-methyl-3-oxopropyl]pyrrolidin-1-yl}-3-methoxy-5-methyl-1-oxoheptan-4-yl]-N-methyl-L-valinamide] (X2-V[Dil][Dolaproine]W-NH2)
Papp (B-A) (Caco-2 cells): 5 nm/s | Tubulin polymerization in the presence of toxophore in [%]. Tubulin polymerization rate at 1 μM MMAF set at 100% (tubulin; [2]): 64%

CC[C@H](C)[C@@H]([C@@H](CC(=O)N1CCC[C@H]1[C@H](OC)[C@@H](C)C(=O)N[C@@H](Cc1c[nH]c2ccccc12)C(=O)O)OC)N(C)C(=O)[C@@H](NC(=O)[C@H](C(C)C)N(C)CCCCCCN1C(=O)CC(SC[C@H](N)C(=O)O)C1=O)C(C)C (stereo partly drawn) [Example 66, N-[6-(3-{[(2R)-2-Amino-2-carboxyethyl]sulphanyl}-2,5-dioxopyrrolidin-1-yl)hexyl]-N-methyl-L-valyl-N-[(3R,4S,5S)-1-{(2S)-2-[(1R,2R)-3-{[(1S)-1-carboxy-2-(1H-indol-3-yl)ethyl]amino}-1-methoxy-2-methyl-3-oxopropyl]pyrrolidin-1-yl}-3-methoxy-5-methyl-1-oxoheptan-4-yl]-N-methyl-L-valinamide] (X2-V[Dil][Dolaproine]W-OH)
Papp (B-A) (Caco-2 cells): 1 nm/s | Tubulin polymerization in the presence of toxophore in [%]. Tubulin polymerization rate at 1 μM MMAF set at 100% (tubulin; [2]): 25%

CC[C@H](C)[C@@H]([C@@H](CC(=O)N1CCC[C@H]1[C@H](OC)[C@@H](C)C(=O)N[C@@H](Cc1c[nH]c2ccccc12)C(=O)N1CCCCO1)OC)N(C)C(=O)[C@@H](NC(=O)[C@H](C(C)C)N(C)CCCCCCN1C(=O)CC(SC[C@H](N)C(=O)O)C1=O)C(C)C (stereo partly drawn) [Example 67, N-[6-(3-{[(2R)-2-Amino-2-carboxyethyl]sulphanyl}-2,5-dioxopyrrolidin-1-yl)hexyl]-N-methyl-L-valyl-N-[(3R,4S,5S)-1-{(2S)-2-[(1R,2R)-3-{[(2S)-3-(1H-indol-3-yl)-1-(1,2-oxazinan-2-yl)-1-oxopropan-2-yl]amino}-1-methoxy-2-methyl-3-oxopropyl]pyrrolidin-1-yl}-3-methoxy-5-methyl-1-oxoheptan-4-yl]-N-methyl-L-valinamide] (X2-V[Dil][Dolaproine]W-{Oxazinan2yl(1,2)})
Tubulin polymerization in the presence of toxophore in [%]. Tubulin polymerization rate at 1 μM MMAF set at 100% (tubulin; [2]): 35%

CC[C@H](C)[C@@H]([C@@H](CC(=O)N1CCC[C@H]1[C@H](OC)[C@@H](C)C(=O)N[C@@H](Cc1ccccc1)C(=O)NCc1ccccc1)OC)N(C)C(=O)[C@@H](NC(=O)[C@H](C(C)C)N(C)CCCC(=O)NNC(=O)CCCCCN1C(=O)CC(SC[C@H](N)C(=O)O)C1=O)C(C)C (stereo partly drawn) [Example 69, N-(4-{2-[6-(3-{[(2R)-2-Amino-2-carboxyethyl]sulphanyl}-2,5-dioxopyrrolidin-1-yl)hexanoyl]hydrazino}-4-oxobutyl)-N-methyl-L-valyl-N-[(3R,4S,5S)-1-{(2S)-2-[(1R,2R)-3-{[(2S)-1-(benzylamino)-1-oxo-3-phenylpropan-2-yl]amino}-1-methoxy-2-methyl-3-oxopropyl]pyrrolidin-1-yl}-3-methoxy-5-methyl-1-oxoheptan-4-yl]-N-methyl-L-valinamide]
Tubulin polymerization in the presence of toxophore in [%]. Tubulin polymerization rate at 1 μM MMAF set at 100% (tubulin; [1]): 110%

CC[C@H](C)[C@@H]([C@@H](CC(=O)N1CCC[C@H]1[C@H](OC)[C@@H](C)C(=O)N[C@@H](Cc1c[nH]c2ccccc12)C(=O)N1CCCCO1)OC)N(C)C(=O)[C@@H](NC(=O)[C@H](C(C)C)N(C)CCOCCOCCOCCC(=O)NCCCC[C@H](N)C(=O)O)C(C)C [Example 107, N-[(18S)-18-Amino-18-carboxy-12-oxo-3,6,9-trioxa-13-azaoctadec-1-yl]-N-methyl-L-valyl-N-[(3R,4S,5S)-1-{(2S)-2-[(1R,2R)-3-{[(2S)-3-(1H-indol-3-yl)-1-(1,2-oxazinan-2-yl)-1-oxopropan-2-yl]amino}-1-methoxy-2-methyl-3-oxopropyl]pyrrolidin-1-yl}-3-methoxy-5-methyl-1-oxoheptan-4-yl]-N-methyl-L-valinamide trifluoroacetate] (X3-V[Dil][Dolaproine]W-{Oxazinan2yl(1,2)})
Tubulin polymerization in the presence of toxophore in [%]. Tubulin polymerization rate at 1 μM MMAF set at 100% (tubulin; concentration of toxophore 1 μM, trifluoroacetate): 60% and 78%

CC[C@H](C)[C@@H]([C@@H](CC(=O)N1CCC[C@H]1[C@H](OC)[C@@H](C)C(=O)N[C@@H](Cc1c[nH]c2ccccc12)C(=O)N1CCCCO1)OC)N(C)C(=O)[C@@H](NC(=O)[C@H]([C@@H](C)O)N(C)CCCCCC(=O)NCCCC[C@H](N)C(=O)O)C(C)C [Example 116, N-(6-{[(5S)-5-Amino-5-carboxypentyl]amino}-6-oxohexyl)-N-methyl-L-threonyl-N-[(3R,4S,5S)-1-{(2S)-2-[(1R,2R)-3-{[(2S)-3-(1H-indol-3-yl)-1-(1,2-oxazinan-2-yl)-1-oxopropan-2-yl]amino}-1-methoxy-2-methyl-3-oxopropyl]pyrrolidin-1-yl}-3-methoxy-5-methyl-1-oxoheptan-4-yl]-N-methyl-L-valinamide trifluoroacetate] (X4-V[Dil][Dolaproine]W-{Oxazinan2yl(1,2)})
Papp (B-A) (Caco-2 cells): 1.8 nm/s

CC[C@H](C)[C@@H]([C@@H](CC(=O)N1CCC[C@H]1[C@H](OC)[C@@H](C)C(=O)N[C@@H](Cc1ccc(O)cc1)C(=O)O)OC)N(C)C(=O)[C@@H](NC(=O)[C@H](C(C)C)N(C)CCCCCC(=O)NCCCC[C@H](N)C(=O)O)C(C)C [Example 118, N-(6-{[(5S)-5-Amino-5-carboxypentyl]amino}-6-oxohexyl)-N-methyl-L-valyl-N-[(3R,4S,5S)-1-{(2S)-2-[(1R,2R)-3-{[(1S)-1-carboxy-2-(4-hydroxyphenyl)ethyl]amino}-1-methoxy-2-methyl-3-oxopropyl]pyrrolidin-1-yl}-3-methoxy-5-methyl-1-oxoheptan-4-yl]-N-methyl-L-valinamide trifluoroacetate] (X1-V[Dil][Dolaproine]Y-OH)
Tubulin polymerization in the presence of toxophore in [%]. Tubulin polymerization rate at 1 μM MMAF set at 100% (tubulin; [1]): 90% | Tubulin polymerization in the presence of toxophore in [%]. Tubulin polymerization rate at 1 μM MMAF set at 100% (tubulin; [2]): 17%
